Data taken from US11554115B2, “Quinoline derivative for treatment of triple-negative breast cancer” (CHIA TAI TIANQING PHARMACEUTICAL GROUP CO., LTD., priority 2018, dated 2023).
Structures can show the parent of a compound that is named as a salt.

Tested on: advanced or metastatic triple-negative breast cancer (ER-negative, PR-negative, HER2-negative)
Test: Clinical trial in patients with advanced or metastatic triple-negative breast cancer
Format: in vivo, human
Conditions: patients aged ≥18 years; capsules alone or in combination with chemotherapy; 12 mg once daily, two-week treatment, one-week rest

## COc1cc2c(Oc3ccc4[nH]c(C)cc4c3F)ccnc2cc1OCC1(N)CC1 [1-[[[4-(4-fluoro-2-methyl-1H-indol-5-yl)oxy-6-methoxyquinolin-7-yl]oxy]methyl]cyclopropylamine dihydrochloride]
  efficacy for the treatment of triple-negative breast cancer: effective
